Experimental data reported in PubChem BioAssay AID488890 (Southern Research Specialized Biocontainment Screening …, 2010).
Results filed as inconclusive are left out. Calls of active or inactive are those of the source. How the calls were made is not given here.

system: Mycobacterium tuberculosis non-replicating, growth inhibition; test: growth inhibition of non-replicating M. tuberculosis (AID 488890)

Structure (SMILES)	IC50
COc1ccc(-c2cc(=O)oc(-c3cccc(C)c3)n2)cc1	8.24 µM
COc1ccc(NC(=O)C(=O)NNC(=O)C(C)Oc2ccc(Cl)cc2Cl)cc1 (stereo not drawn)	1.53 µM
O=C(Nc1cccnc1)c1ccc(-c2ccc(Cl)cc2)o1	5.13 µM
O=C1c2ccccc2CC1Sc1nnc(-c2ccncc2)o1 (stereo not drawn)	23.9 µM (inactive)
C=C(C)C1CC=C(C)/C(=N/NC(=O)CNc2ccc(OCC)cc2)C1 (stereo not drawn)	> 25 µM (inactive)
Cc1ccc(-n2cc(CNCCc3cscn3)c(-c3ccc(F)cc3)n2)cc1	10.9 µM (inactive)
Nc1nonc1C(=O)NCCN=Cc1cc(Cc2ccccc2)cc(Br)c1O	5.63 µM
O=C(CCC1CCCC1)Nc1ccc(Br)cn1	3.88 µM
O=C(COc1cccc2ccccc12)Nc1nc2ccccc2[nH]1	5.36 µM
O=C1CC(=O)CC(c2ccccc2)C1	29.8 µM (inactive)
CSCCOC(=O)COc1ccc(/C=N/NC(=O)c2c(Cl)cnn2C)cc1	8.85 µM
CC(C)N1C(=O)NC(=O)C2(Cc3cc([N+](=O)[O-])ccc3N(C)C2c2ccccc2)C1=O (stereo not drawn)	14.7 µM (inactive)
COc1ccc(C(=O)Oc2c(CN3CCOCC3)cc(Cl)c3cccnc23)cc1OC	15.3 µM (inactive)
COc1ccc(Nc2ccccc2N)cc1	2.72 µM
CCOC(=O)CNc1ccc(C(=O)OCC)cc1[N+](=O)[O-]	11 µM (inactive)
CC1CCCN(CCC(=O)c2ccc(Br)cc2)C1 (stereo not drawn)	1.16 µM
O=C(OCc1ccc([N+](=O)[O-])cc1)c1ccc2ccccc2n1	4.44 µM
Oc1ccc(Cl)cc1C1=NNC(c2cccs2)C1 (stereo not drawn)	3.85 µM
Cc1ccc(NC(=O)CCSc2nnc(Cc3ccccc3)o2)cc1	2.05 µM
CC/C(=C\C=C\[C@@H]1C=C[C@@H]2CCC[C@H]2[C@@H]1C(=O)c1ccc[nH]1)[C@@H]1O[C@@H]([C@@H](C)C(=O)O)CC[C@@H]1C	3.28 µM
CN(C)S(=O)(=O)Oc1ccc(C(=O)Nc2cccc(C(F)(F)F)c2)cc1	13.5 µM (inactive)
Cc1ccc(NC(=O)CO/N=C/c2ccccc2C)c(C)c1	13 µM (inactive)
O=C(Nc1nnc(COc2ccc(Cl)cc2)s1)c1ccco1	21.4 µM (inactive)

Structure (SMILES)	IC50
Cc1c(Cl)cccc1-c1ccc(CNCc2ccccn2)o1	4.58 µM
Cc1ccc(-c2ccc(/C=N/NC(=O)CN3CCOCC3)o2)cc1[N+](=O)[O-]	32.2 µM (inactive)
O=C(NCc1ccco1)c1nc2ccccc2s1	4.22 µM
CCOC(=O)Cc1ccc(NCc2ccc(Cl)cc2)cc1	10.8 µM (inactive)
CCOc1ccc2ccccc2c1/C=N/NC(=O)c1ccncc1	0.58 µM
O=[N+]([O-])c1cc(N=Nc2ccc3ccccc3c2)ccc1O	10.2 µM (inactive)
O=c1c2cc(Cl)ccc2nc(-c2ccc(Cl)c(Cl)c2)n1O	< 0.1 µM
CC1(O)CC(c2ccc(Cl)cc2)=NN1C(=O)c1ccc([N+](=O)[O-])cc1 (stereo not drawn)	0.18 µM
CC1=C/C(=N\OS(=O)(=O)c2ccccc2)C(C)=CC1=O	0.66 µM
Cc1cc(C)n2[nH]c(=O)c(N=Nc3cccc(C(F)(F)F)c3)c2n1	4.14 µM
CC(C)C(=O)N1CCN(c2ccc(NC(=O)c3ccc([N+](=O)[O-])o3)cc2)CC1	1.24 µM
CC1=NN(C(=O)c2ccccc2F)C(O)(c2ccc(Cl)cc2)C1 (stereo not drawn)	0.5 µM
CCN(CC)CCNC(=O)c1[nH]c2ccc(OCc3ccccc3)cc2c1C	29.6 µM (inactive)
O=C(N[C@@H]1C[C@H]2CC[C@@H]1C2)c1ccco1	15.1 µM (inactive)
CCCNC(=O)NC(=O)COc1ccc(-c2ccc(C#N)cc2)cc1	2.54 µM
COc1ccc(NC(=O)c2cc([N+](=O)[O-])ccc2O)cc1	7.71 µM
CC1Cc2ccccc2N1C(=O)COC(=O)c1ccc(Cl)nc1 (stereo not drawn)	18.5 µM (inactive)
O=C(CCSc1ccc(Cl)cc1)Nc1cccnc1	> 50 µM (inactive)
C/C(=N\NC(=O)c1c[nH]c2ccccc12)c1ccccn1	6.38 µM
CCOC(=O)c1ccc(N=C2SC(C(=O)Nc3ccc(C(=O)O)cc3)CC(=O)N2Cc2cccs2)cc1 (stereo not drawn)	35.1 µM (inactive)
CN1CCC(O)(c2ccccc2)C(C(=O)c2ccccc2)C1 (stereo not drawn)	4.85 µM
CCCCN(C/C=C/c1ccccc1OC)Cc1ccccc1	8.78 µM
CCOC(=O)N1CCN(Cc2cc(Cl)c3cccnc3c2O)CC1	3.55 µM

Structure (SMILES)	IC50
COC(=O)CN(C#N)c1nc(SC)nc(N(C)C)n1	15.9 µM (inactive)
CCCCCCn1c(=O)c(C(=O)Nc2nnc(C)s2)c(O)c2ccccc21	4.29 µM
Cc1ccc(S(=O)(=O)CCC(=O)Nc2nc(-c3ccncc3)cs2)cc1	14.6 µM (inactive)
Cc1ccc(OCC(=O)N/N=C/c2ccc([N+](=O)[O-])o2)cc1	2.89 µM
O=C(NCCC1CCCC1)c1cccs1	1.37 µM
Oc1ccc(Br)cc1-c1ccn[nH]1	1.71 µM
C/C(=N\Nc1cccc2cccnc12)c1ccccn1	32.7 µM (inactive)
O=C(OCn1nnc2ccccc2c1=O)c1cccs1	12.4 µM (inactive)
CN1CCN(Cc2cc(C(C)(C)C)c(O)c(C(C)(C)C)c2)CC1	11.8 µM (inactive)
COc1ccc(-c2nc3ccc(C)cc3c(=O)o2)cc1OC	2.95 µM
COc1ccc(COC(=O)CCNC(=O)c2ccc(Cl)cc2)cc1	8.25 µM
CCOc1ccc(NC(=O)COC(=O)C2(C)CC2(Cl)Cl)c([N+](=O)[O-])c1 (stereo not drawn)	10.8 µM (inactive)
CCCCOC(=O)C1CCCC(C(=O)OCCCC)N1 (stereo not drawn)	4.91 µM
Cc1cccc(NC(=O)COC(=O)c2cc3ccccc3oc2=O)c1	14.2 µM (inactive)
Cc1cccc(NC(=O)COc2ccc(Br)cc2)n1	7.08 µM
CC(=O)c1ccc(NC(=O)c2cc(CC(C)C)on2)cc1	3.58 µM
O=C(Nc1ccccc1F)c1ccc(CSc2ccccc2)o1	4.4 µM
CC(C)(C)c1ccccc1OCCOCCN1CCCCCC1	16.2 µM (inactive)
CCOC(=O)c1cn(Cc2cccc(Cl)c2)nn1	8.03 µM
CCC(CC)c1nnc(NC(=O)c2ccc3ccccc3n2)s1	4.02 µM
COc1ccc(CN2C(=O)/C(=C/c3ccncc3)SC2=S)cc1	39.3 µM (inactive)
COc1cccc(NC(=O)c2ccc(Cn3cc([N+](=O)[O-])cn3)o2)c1	7.57 µM
Cc1cnc(NC(=O)c2ccccn2)s1	8.53 µM

Structure (SMILES)	IC50
COC(=O)C1=C(C(=O)OC)C(c2cc(Cl)ccc2O)c2sc(=O)[nH]c2S1 (stereo not drawn)	34.9 µM (inactive)
CN(C)CC/C=C1/c2ccc(F)cc2Sc2ccc(Cl)cc21	8.11 µM
CC(C)c1ccc(OCC(=O)NCc2ccccc2)cc1	19.2 µM (inactive)
COc1ccc(N/N=C/c2c(C(=O)O)ccc3ccccc23)cc1	< 0.1 µM
O=C(OCC(=O)N1CCc2ccccc2C1)c1cccc([N+](=O)[O-])c1	9.6 µM
O=C(O/N=C/c1ccc2c(c1)OCO2)c1ccc([N+](=O)[O-])cc1	11.6 µM (inactive)
CC(C)(C)c1cc(CN2CCC(O)CC2)cc(C(C)(C)C)c1O	6.92 µM
Cc1nc2ccc(NC(=O)c3ccc([N+](=O)[O-])cc3[N+](=O)[O-])cc2s1	7.88 µM
CCOC(=O)C(=O)Cc1nc2ccccc2s1	6.54 µM
CN1CCC(O)(c2cccs2)C(C(=O)c2cccs2)C1 (stereo not drawn)	2.35 µM
CC(=O)Nc1cccc(-c2nc3ccccc3c(=O)o2)c1	7.84 µM
N#CC1=C(N)Oc2n[nH]c(-c3cccnc3)c2C1c1ccc([N+](=O)[O-])o1 (stereo not drawn)	5.62 µM
Cc1cc(C)n2nc(N)c(N=Nc3ccccc3)c2n1	5.87 µM
CCOC(=O)COc1ccc(C(=O)NC2CCCCC2)cc1	4.04 µM
Cc1ccc2c(c1)C(=O)C(=O)N2CCCOc1ccccc1	22.9 µM (inactive)
O=[N+]([O-])c1cc(-c2nc(-c3ccncc3)no2)cc([N+](=O)[O-])c1	1.59 µM
Cc1cc(C(=O)N/N=C/c2cccc(Cl)c2Cl)no1	1.01 µM
Cc1cc(=O)n2cccc(O)c2n1	6.1 µM
Cc1cccc(N2CCN(C(=O)Cn3sc4nc(C)cc(C)c4c3=O)CC2C)c1 (stereo not drawn)	2.7 µM
CCn1cc(C(=O)O)c(=O)c2cc(F)c(N3CCN(C(=S)NC(=O)c4ccccc4)CC3)cc21	16.8 µM (inactive)
O=C(N/N=C/C(Br)=C/c1ccccc1)c1cnccn1	13.1 µM (inactive)
O=C(Nc1cccc(Cl)c1)C1COc2ccccc2O1 (stereo not drawn)	7.86 µM
CCc1nnc(NC(=O)CN2CCN(c3ccccc3F)CC2)s1	29.2 µM (inactive)

Structure (SMILES)	IC50
Cc1ccc(CO/N=C/c2c(O)cc(C)oc2=O)cc1	16.6 µM (inactive)
CC(=O)c1ccc(-n2cc(-c3ccc(C(C)(C)C)cc3)[n+]3c2SCCC3)cc1	6.18 µM
CC1=CN2C(=N)/C(=C/c3ccc([N+](=O)[O-])o3)C(=O)N=C2S1	12.8 µM (inactive)
Cc1ccc(N2NC(=O)/C(=C/C=C/c3ccco3)C2=O)cc1C	3.72 µM
CCOC(=O)C1CSC(CC(=O)Nc2ccc(Cl)c(Cl)c2)C(=O)N1 (stereo not drawn)	10.7 µM (inactive)
Cc1cccc(C)c1NC(=O)COC(=O)CCc1c[nH]c2ccccc12	19.3 µM (inactive)
COc1cccc(N2C(=O)NC(=O)/C(=C/c3ccc([N+](=O)[O-])s3)C2=O)c1	17.1 µM (inactive)
O=C1OC(/C=C/c2ccccc2)=NC/1=C\c1cccnc1	13 µM (inactive)
COc1ccc(S(=O)(=O)NCc2ccc3c(c2)cc(C)n3C)cc1	19.9 µM (inactive)
O=C(Cc1c(F)cccc1Cl)Nc1ncc([N+](=O)[O-])s1	12.1 µM (inactive)
CC(OC(=O)c1ccc2c(=O)n3c(nc2c1)CCCCC3)C(=O)Nc1ccc(Cl)cn1 (stereo not drawn)	3.69 µM
Cc1cccnc1NC(=O)C1COc2ccccc2O1 (stereo not drawn)	29.6 µM (inactive)
COC(=O)COc1cccc(NC(=O)c2ccc(Cl)cc2)c1	3.98 µM
CCOC(=O)COc1ccc2c(=O)c(-c3ccccc3)coc2c1	< 0.1 µM
O=c1c2ccc(Cl)cc2nc(-c2ccc([N+](=O)[O-])cc2)n1O	1.3 µM
CCCCn1nnc(NC(=O)COc2ccc(Cl)c(C)c2)n1	7.56 µM
CC1=NN(C(=O)c2ccc(Cn3nc(C)c(Br)c3C)cc2)C(O)(C(F)(F)F)C1 (stereo not drawn)	0.58 µM
CCOC(=O)CNCCC(=O)c1ccc(Br)cc1	4.35 µM
COc1ccc(C(=O)CCNc2ccc(F)cc2)cc1	5.22 µM
CC(C)Cn1c(N)c(C(=O)COC(=O)c2ccc([N+](=O)[O-])o2)c(=O)n(C)c1=O	2.86 µM
COc1ccc(C(=O)CCS(=O)(=O)c2ccc(C)cc2)cc1OC	4.05 µM
